Assay results from patent US20230285346A1, “METHODS OF USING FTO INHIBITORS FOR THE TREATMENT OF PULMONARY HYPERTENSION” (Ann and Robert H. Lurie Children's Hospital of Chicago, priority 2022, published 2023).

Key:
MCT-induced PH in rats = test: monocrotaline (MCT)-induced rat PH model; assay type: in vivo, Sprague Dawley (SD) rats
Experimental: FIGS. 15A, 15B, 15C, 15D, and 15E. […] (A) FB-23-2 chemical structure. (B) Hemodynamic measurement showing decreased RVSP in FB23-2-treated MCT rats. (C) FB23-2 treatment attenuated RV hypertrophy. (D) Representative micrographs of pentachrome staining showing a markedly thickened vessel in Vehicle-treated MCT rats whereas normalized thickness of vessel walls in FB23-2-treated rats. At 2 weeks post-MCT challenge, the rats were treated with either PBS or FB23-2 (3 mg/kg, i.p. twice a day) for 2 weeks. V=vessel, Br=Bronchiole. Scale bar, 20 μm. […] Student's t test.
FIGS. 17A, 17B, and 17C. Decreased RVSP and RV hypertrophy in Meclofenamate-treated MCT rats. (A) representative tracings of RVSP measurement. Mec=Meclofenamate. […] (C) Reduced RV hypertrophy in Meclofenamate-treated MCT rats. CTL, control rats without MCT treatment. *P<0.05; **P<0.01. One-way ANOVA.
FIGS. 18A and 18B. Inhibited pulmonary vascular remodeling in Meclofenamate-treated MCT rats. (A) Representative micrographs of pentachrome staining showing a markedly thickened vessel in PBS-treated MCT rats whereas normalized thickness of vessel walls in Meclofenamate-treated rats. At 2 weeks post-MCT challenge, the rats were treated with either PBS or Meclofenamate for 2 weeks. V=vessel, Br=Bronchiole. Scale bar, 20 μm. (B). Quantification of pulmonary artery (PA) wall thickness. CTL=control rats without MCT treatment. *P<0.05. One-way ANOVA.
FIGS. 19A and 19B. Improved right heart contractility and pulmonary arterial function in Meclofenamate-treated MCT rats. At 2 weeks post-MCT, the rats were treated with either PBS or Meclofenamate for 2 weeks and then subject to echocardiography for assessment of right heart contractility determined by RV fraction area changes (RV FAC) (A), and of pulmonary arterial function by PA acceleration time/ejection time ratio (PA AT/ET) (B). ** P<0.01. Student t test.
Inhibited Arginase expression in lung ECs of Fto^Tie2Cre mice following chronic hypoxia. To identify potential FTO targets in lung ECs, RNA was isolated from lung ECs of WT mice and Fto^Tie2Cre mice at normoxia, 3 days, and 21 days hypoxia for RNA sequencing analysis. Arg1 is one of the top 10 genes induced in hypoxic WT mice but not in hypoxic Fto^Tie2Cre mice. […] It has been shown that substrate L-Arginine levels inversely correlate to PA pressure in patients (19). […] Increased Arginase expression and activity in lung ECs leads to reduced substrate L-Arginine for nitric oxide (NO) synthesis by eNOS and thus impairs NO production (21, 22). Low NO levels affect vasotone and smooth muscle cell growth. […] FTO deficiency reduces the stability of ARG2 mRNA in human PAECs. To determine whether ARG2 (the major isoform in human ECs) is a target of FTO in human PAECs, a stability assay was carried out and the effect of FTO on the decay of ARG2 mRNA was assessed. FTO-silenced and control PAECs were treated with 5 μg/mL actinomycin D to stop the new transcriptional process. Total RNA was then isolated at 0, 3, 6 h post-actinomycin D treatment and quantified by QRT-PCR analysis. The relative ARG2 level was calculated and normalized to β-actin and the ARG2 mRNA half-life time (t1/2) was estimated according to the linear regression analysis (9). […] Increased m^6A demethylase activity and FTO expression in PAECs from IPAH patients compared to donor ECs and FTO-dependent upregulation of ARG2 expression in PAECs of IPAH patients. […] Furthermore, methylated RNA immunoprecipitation (MeRIP)-QRT-PCR analysis confirmed a marked decrease of m^6A ARG2 in IPAH ECs compared to normal ECs from unused donors (FIG. 10). • 7. SMC-specific Fto deletion inhibits hypoxia-induced PH in mice. To determine whether FTO is essential for medial thickening and muscularization of distal pulmonary vessels and development of PAH, novel tamoxifen-inducible Fto^iΔSMC mice were generated by breeding Fto-floxed mice into the genetic background of Myh11-CreER^T2 mice. […]

FTO = FTO (Homo sapiens, UniProt Q9C0B1); settings: FTO versus ALKBH5; cited from earlier work
[1] = FB23-2 3 mg/kg, i.p. twice a day for 2 weeks, vs vehicle-treated MCT rats

FTO, sequence (Q9C0B1 whole entry): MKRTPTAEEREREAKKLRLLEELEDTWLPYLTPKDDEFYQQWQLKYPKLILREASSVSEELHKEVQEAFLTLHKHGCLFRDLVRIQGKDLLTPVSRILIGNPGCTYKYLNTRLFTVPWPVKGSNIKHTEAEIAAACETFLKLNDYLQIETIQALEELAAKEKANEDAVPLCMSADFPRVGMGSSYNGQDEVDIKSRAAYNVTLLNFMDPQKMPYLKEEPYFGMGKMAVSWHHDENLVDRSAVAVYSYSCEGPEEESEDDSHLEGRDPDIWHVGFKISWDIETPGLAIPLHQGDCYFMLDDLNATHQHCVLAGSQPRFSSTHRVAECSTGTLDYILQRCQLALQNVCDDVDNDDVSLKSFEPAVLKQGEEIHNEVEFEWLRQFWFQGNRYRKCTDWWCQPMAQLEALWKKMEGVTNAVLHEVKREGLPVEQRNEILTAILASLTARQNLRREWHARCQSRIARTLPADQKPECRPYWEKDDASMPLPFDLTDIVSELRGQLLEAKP

Cc1ccc(Cl)c(Nc2ccccc2C(=O)O)c1Cl [Meclofenamate sodium]
RVSP (MCT-induced PH in rats; Meclofenamate 10 mg/kg, p.o., twice a day for 2 weeks from 2 weeks post-MCT, vs PBS-treated MCT rats): drastically decreased | MCT-induced RV hypertrophy (MCT-induced PH in rats; Meclofenamate 10 mg/kg, p.o., twice a day for 2 weeks, vs PBS-treated MCT rats): markedly reduced | PA wall thickness (pentachrome staining; pulmonary vascular remodeling) (MCT-induced PH in rats; Meclofenamate 10 mg/kg, p.o., twice a day for 2 weeks, vs untreated MCT-rats): markedly reduced | right heart contractility, RV fraction area changes (RV FAC), echocardiography (MCT-induced PH in rats; Meclofenamate for 2 weeks from 2 weeks post-MCT, decrease seen in PBS-treated MCT rats): reversed | ratio of PA acceleration time/ejection time (PA AT/ET) (MCT-induced PH in rats; Meclofenamate for 2 weeks from 2 weeks post-MCT, vs PBS-treated MCT rats): marked increase | selectivity of FTO inhibition (FTO): selective over ALKBH5

Cc1noc(C)c1-c1cc(Cl)c(Nc2ccccc2C(=O)NO)c(Cl)c1 [FB23-2]
MCT-induced RVSP increase (MCT-induced PH in rats; FB23-2 3 mg/kg, i.p. twice a day for 2 weeks from 2 weeks post-MCT, measured 4 weeks post-MCT, vs vehicle): markedly reduced | RV hypertrophy determined by RV/LV+septum ratio (MCT-induced PH in rats; FB23-2 3 mg/kg, i.p. twice a day for 2 weeks from 2 weeks post-MCT, vs vehicle): markedly reduced | pulmonary arterial function (echocardiography, PA AT/ET) (MCT-induced PH in rats; [1]): improved pulmonary arterial function | pulmonary vascular remodeling (vessel wall thickness, pentachrome staining) (MCT-induced PH in rats; [1]): reduced pulmonary vascular remodeling
